Reference: patent publication US20100068181A1, “PYRROLO [3, 2-A] PYRIDINE DERIVATIVES FOR INHIBITING KSP KINESIN ACTIVITY” (Schering Corporation, priority 2006, published 2010)

These compounds were tested against T1, KSP (Homo sapiens, UniProt P52732) (assay: KSP inhibitory activity, end-point assay). Settings: KSP inhibitory activity based on end-point assay; read-out: IC50 Rating.
T1 sequence (P52732 1-1056): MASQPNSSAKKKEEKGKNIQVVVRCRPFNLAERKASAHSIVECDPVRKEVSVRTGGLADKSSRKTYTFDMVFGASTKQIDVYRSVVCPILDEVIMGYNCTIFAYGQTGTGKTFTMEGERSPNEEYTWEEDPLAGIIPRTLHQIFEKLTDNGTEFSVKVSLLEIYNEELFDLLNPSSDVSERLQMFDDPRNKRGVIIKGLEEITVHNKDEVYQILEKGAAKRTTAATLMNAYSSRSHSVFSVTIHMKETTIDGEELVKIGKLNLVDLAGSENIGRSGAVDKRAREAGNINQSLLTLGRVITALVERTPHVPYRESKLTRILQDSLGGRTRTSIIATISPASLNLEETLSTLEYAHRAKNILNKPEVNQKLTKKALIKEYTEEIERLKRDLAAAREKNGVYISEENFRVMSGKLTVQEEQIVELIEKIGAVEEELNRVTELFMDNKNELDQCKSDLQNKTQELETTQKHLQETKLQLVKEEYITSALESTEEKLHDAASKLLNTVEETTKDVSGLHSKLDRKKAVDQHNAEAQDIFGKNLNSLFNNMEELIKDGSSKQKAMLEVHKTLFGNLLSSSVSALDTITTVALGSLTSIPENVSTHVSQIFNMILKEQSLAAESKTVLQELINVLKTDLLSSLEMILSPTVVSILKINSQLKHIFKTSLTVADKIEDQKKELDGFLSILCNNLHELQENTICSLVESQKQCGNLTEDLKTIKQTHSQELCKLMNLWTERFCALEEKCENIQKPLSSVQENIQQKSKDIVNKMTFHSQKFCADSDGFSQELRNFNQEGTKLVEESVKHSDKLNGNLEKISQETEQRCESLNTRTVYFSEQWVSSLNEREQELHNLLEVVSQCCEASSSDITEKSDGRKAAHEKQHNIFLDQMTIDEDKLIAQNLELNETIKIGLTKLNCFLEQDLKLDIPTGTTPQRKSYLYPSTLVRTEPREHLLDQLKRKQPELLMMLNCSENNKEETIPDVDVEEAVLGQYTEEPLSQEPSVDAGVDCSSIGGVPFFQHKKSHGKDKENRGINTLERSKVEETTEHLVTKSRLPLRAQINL
Format: biochemical
From the text: The inhibitory activity of the present compounds towards KSP may be assayed by methods known in the art, for example, by using the methods as described in the examples.

SMILES | IC50
CC(C)(C)C1CCc2nc3cc(C(=O)N[C@H](CO)Cc4ccccc4)[nH]c3cc2C1 (some centres unmarked) [Example 108] | > 10000 nM
COc1cccc(-c2c(C(N)=O)[nH]c3cc4c(nc23)CCC(C(C)(C)C)C4)c1 (centres unmarked) [Example 116] | > 10000 nM
CC(C)(C)C1CCc2nc3c(-c4cccc(OC(F)(F)F)c4)c(C(N)=O)[nH]c3cc2C1 (centres unmarked) [Example 117] | > 10000 nM
COC(=O)c1c[nH]c2cc3c(nc12)CCC(C(C)(C)C)C3 (centres unmarked) [Example 71] | > 10000 nM
CC(C)(C)C1CCc2nc3cc(C(=O)Nc4ccncc4)[nH]c3cc2C1 (centres unmarked) [Example 97] | 100 to 1000 nM
CC(C)(C)C1CCc2nc3cc(CC#N)[nH]c3cc2C1 (centres unmarked) [Example 33] | 1000 to 10000 nM
CC(C)(C)C1CCc2nc3c(Br)c(C(N)=O)[nH]c3cc2C1 (centres unmarked) [Example 35] | > 10000 nM
CC(C)(C)C1CCc2nc3cc(C(O)c4cccc(Cl)c4)[nH]c3cc2C1 (centres unmarked) [Example 112] | > 10000 nM
CCOC(=O)c1[nH]c2cc3c(nc2c1C)CCC(C(C)(C)C)C3 (centres unmarked) [Example 45] | > 10000 nM
CC(C)OCc1cc2nc3c(cc2[nH]1)CC(C(C)(C)C)CC3 (centres unmarked) [Example 89] | > 10000 nM
CC(=NO)c1cc2nc3c(cc2[nH]1)CC(C(C)(C)C)CC3 (centres unmarked) [Example 31] | > 10000 nM
CCC(O)c1cc2nc3c(cc2[nH]1)CC(C(C)(C)C)CC3 (centres unmarked) [Example 113] | 100 to 1000 nM
CC(C)(C)C1CCc2nc3cc(C(=O)Nc4ccc(N)nc4)[nH]c3cc2C1 (centres unmarked) [Example 104] | 100 to 1000 nM
CCOC(=O)c1[nH]c2cc3c(nc2c1CCCN)CCC(C(C)(C)C)C3 (centres unmarked) [Example 51] | > 10000 nM
CC(C)(C)C1CCc2nc3cc(COC(=O)c4ccccc4)[nH]c3cc2C1 (centres unmarked) [Example 32] | > 10000 nM
CC(C)(C)C1CCc2nc3cc(C(=O)NCc4ccccc4)[nH]c3cc2C1 (centres unmarked) [Example 18] | > 10000 nM
CC(C)(C)C1CCc2nc3cc(C(=O)NCCO)[nH]c3cc2C1 (centres unmarked) [Example 7] | 100 to 1000 nM
CC(C)(C)C1CCc2nc3c(NS(C)(=O)=O)c(C(N)=O)[nH]c3cc2C1 (centres unmarked) [Example 68] | 1000 to 10000 nM
CCOC(=O)c1[nH]c2cc3c(nc2c1NCCCO)CCC(C(C)(C)C)C3 (centres unmarked) [Example 67] | > 10000 nM
CC(C)(C)C1CCc2nc3cc(C(=O)NCc4ccccn4)[nH]c3cc2C1 (centres unmarked) [Example 91] | > 10000 nM
CC(C)(C)[C@H]1CCc2nc3cc(C(=O)Nc4ccc(O)cc4)[nH]c3cc2C1 [Example 103B] | > 10000 nM
COc1cccc(C(O)c2cc3nc4c(cc3[nH]2)CC(C(C)(C)C)CC4)c1 (centres unmarked) [Example 110] | > 10000 nM

SMILES | IC50
CCOC(=O)c1cc2nc3c(cc2[nH]1)CC(C(C)(C)C)CC3 (centres unmarked) [Example 1] | 1000 to 10000 nM
CCc1c(C(N)=O)[nH]c2cc3c(nc12)CCC(C(C)(C)C)C3 (centres unmarked) [Example 48] | 1000 to 10000 nM
CC(C)(C)C1CCc2nc3c(-c4cccc(S(C)(=O)=O)c4)c(C(N)=O)[nH]c3cc2C1 (centres unmarked) [Example 120] | 100 to 1000 nM
CC(C)(C)C1CCc2nc3cc(C(O)c4ccccc4)[nH]c3cc2C1 (centres unmarked) [Example 109] | > 10000 nM
CC(C)(C)C1CCc2nc3cc(C(=O)NCCCCCO)[nH]c3cc2C1 (centres unmarked) [Example 11] | 1000 to 10000 nM
CC(=O)NC(Cc1c(C(N)=O)[nH]c2cc3c(nc12)CCC(C(C)(C)C)C3)C(N)=O (centres unmarked) [Example 44] | > 10000 nM
CC(C)(C)OC(=O)NCCCc1c(C(N)=O)[nH]c2cc3c(nc12)CCC(C(C)(C)C)C3 (centres unmarked) [Example 52] | > 10000 nM
CC(C)(C)C1CCc2nc3c(CCO)c(CO)[nH]c3cc2C1 (centres unmarked) [Example 37] | > 10000 nM
CC(C)(C)C1CCc2nc3cc(C(=O)NCCCCO)[nH]c3cc2C1 (centres unmarked) [Example 13] | 1000 to 10000 nM
CC(C)(C)C1CCc2nc3cc(C(=O)NCCc4ccc(O)cc4)[nH]c3cc2C1 (centres unmarked) [Example 15] | > 10000 nM
CC(C)(C)C1CCc2nc3c(NCCO)c(C(N)=O)[nH]c3cc2C1 (centres unmarked) [Example 66] | 1000 to 10000 nM
CC(C)(C)C1CCc2nc3cc(C(=O)NCCN4CCNCC4)[nH]c3cc2C1 (centres unmarked) [Example 92] | 1000 to 10000 nM
CC(C)(C)C1CCc2nc3c(-c4cccc(N)c4)c(C(N)=O)[nH]c3cc2C1 (centres unmarked) [Example 121] | > 10000 nM
CC(C)(C)C1CCc2nc3c(CC(O)CO)c(C(N)=O)[nH]c3cc2C1 (centres unmarked) [Example 55] | > 10000 nM
CCNC(=O)c1cc2nc3c(cc2[nH]1)CC(C(C)(C)C)CC3 (centres unmarked) [Example 4] | 100 to 1000 nM
CC(C)(C)C1CCc2nc3c([N+](=O)[O-])c(C(N)=O)[nH]c3cc2C1 (centres unmarked) [Example 26] | > 10000 nM
C=CCC(O)c1cc2nc3c(cc2[nH]1)CC(C(C)(C)C)CC3 (centres unmarked) [Example 114] | 100 to 1000 nM
CC(C)(C)C1CCc2nc3c(CCCO)c(C(N)=O)[nH]c3cc2C1 (centres unmarked) [Example 50] | 100 to 1000 nM
CC(C)(C)C1CCc2nc3cc(C(=O)NCCN)[nH]c3cc2C1 (centres unmarked) [Example 6] | 100 to 1000 nM
Cc1[nH]c2cc3c(nc2c1CCO)CCC(C(C)(C)C)C3 (centres unmarked) [Example 36] | > 10000 nM
C=CCNC(=O)c1c[nH]c2cc3c(nc12)CCC(C(C)(C)C)C3 (centres unmarked) [Example 78] | > 10000 nM
CC(C)(C)C1CCc2nc3cc(C(N)=O)[nH]c3cc2C1 (centres unmarked) [Example 2] | < 100 nM

The remaining lines, values ahead:

IC50 | SMILES
100 to 1000 nM | CC(C)(C)C1CCc2nc3c(CCCCO)c(C(N)=O)[nH]c3cc2C1 (centres unmarked) [Example 57]
100 to 1000 nM | COCCOCc1cc2nc3c(cc2[nH]1)CC(C(C)(C)C)CC3 (centres unmarked) [Example 86]
100 to 1000 nM | COCc1cc2nc3c(cc2[nH]1)CC(C(C)(C)C)CC3 (centres unmarked) [Example 87]
< 100 nM | CC(C)(C)[C@@H]1CCc2nc3cc(C(N)=O)[nH]c3cc2C1 (single isomer, unassigned) [Example 21A]
> 10000 nM | Cc1cc(C)n(C(=O)c2c[nH]c3cc4c(nc23)CCC(C(C)(C)C)C4)n1 (centres unmarked) [Example 93]
1000 to 10000 nM | CC(C)(C)C1CCc2nc3cc(C(=O)NCCCN)[nH]c3cc2C1 (centres unmarked) [Example 8]
100 to 1000 nM | CC(C)(C)C1CCc2nc3cc(C(=O)NCCCCN)[nH]c3cc2C1 (centres unmarked) [Example 5]
> 10000 nM | CC(C)(C)C1CCc2nc3cc(C(=O)N[C@@H](CO)c4ccccc4)[nH]c3cc2C1 (some centres unmarked) [Example 107]
> 10000 nM | CCOC(=O)c1cc2nc3c(cc2n1C(C)=O)CC(C(C)(C)C)CC3 (centres unmarked) [Example 42]
1000 to 10000 nM | CC(=O)Nc1c[nH]c2cc3c(nc12)CCC(C(C)(C)C)C3 (centres unmarked) [Example 84]
> 10000 nM | CCOC(=O)c1cc(NC(=O)c2cc3nc4c(cc3[nH]2)CC(C(C)(C)C)CC4)c[nH]1 (centres unmarked) [Example 98]
> 10000 nM | CC(C)(C)C1CCc2nc3cc(C(=O)NCc4cccnc4)[nH]c3cc2C1 (centres unmarked) [Example 19]
> 10000 nM | C[C@H](CO)NC(=O)c1c[nH]c2cc3c(nc12)CCC(C(C)(C)C)C3 (some centres unmarked) [Example 77]
> 10000 nM | COc1ccc(OC)c(-c2c(C(N)=O)[nH]c3cc4c(nc23)CCC(C(C)(C)C)C4)c1 (centres unmarked) [Example 118]
100 to 1000 nM | CC(C)(C)C1CCc2nc3c(C(=O)NN)c[nH]c3cc2C1 (centres unmarked) [Example 79]
1000 to 10000 nM | C=Cc1cc2nc3c(cc2[nH]1)CC(C(C)(C)C)CC3 (centres unmarked) [Example 28]
< 100 nM | CC(C)(C)C1CCc2nc3cc(CO)[nH]c3cc2C1 (centres unmarked) [Example 23]
> 10000 nM | CC(C)(C)C1CCc2nc3cc(C(=O)NNCCC#N)[nH]c3cc2C1 (centres unmarked) [Example 99]
1000 to 10000 nM | CC(C)(C)C1CCc2nc3c(CCCCCO)c(C(N)=O)[nH]c3cc2C1 (centres unmarked) [Example 59]
< 100 nM | CC(C)(C)C1CCc2nc3cc(C(=O)N[C@H](CN)c4cccc(NC(=O)c5ccco5)c4)[nH]c3cc2C1 (some centres unmarked) [Example 124]
> 10000 nM | CC(C)(C)C1CCc2nc3cc(C(=O)NCCCCCCO)[nH]c3cc2C1 (centres unmarked) [Example 12]

Same assay, conditions: numerical IC50 values for representative compounds; read-out: IC50

SMILES | IC50
CC(C)(C)[C@@H]1CCc2nc3cc(C(N)=O)[nH]c3cc2C1 (single isomer, unassigned) [Example 21A] | 30 nM
CC(C)(C)C1CCc2nc3cc(CO)[nH]c3cc2C1 (centres unmarked) [Example 23] | 40 nM
CC(C)(C)C1CCc2nc3cc(C(N)=O)[nH]c3cc2C1 (centres unmarked) [Example 2] | 30 nM
